According to patent publication US10059722B2, “Cephalosporin derivatives and methods of use” (priority 2012, dated 2018):
In brackets after ≈: the same amount, converted by molar mass. Entries after “also recorded” stand apart in the source; their conditions may differ. Read-outs that look alike come from different tables or passages of the source.

Experiments:
Pseudomonas aeruginosa = test: Antibiotic spectrum: Pseudomonas aeruginosa; format: cell-based; settings: Gram negative, replicating conditions, n=1 experiment; for MIC: Pseudomonas aeruginosa, read-out: MIC against Pseudomonas aeruginosa
[1] = test system: non-replicating M. tuberculosis; test: microbe, parasite or virus in culture; format: cell-based, Mycobacterium tuberculosis; settings: for MIC: Mycobacterium tuberculosis
Escherichia coli = test: Antibiotic spectrum: Escherichia coli; format: cell-based; settings: Gram negative, replicating conditions, n=1 experiment; for MIC: Escherichia coli, read-out: MIC against Escherichia coli
Staphylococcus aureus = test: Antibiotic spectrum: Staphylococcus aureus; format: cell-based; settings: Gram positive, replicating conditions, n=1 experiment; for MIC: Staphylococcus aureus, read-out: MIC against Staphylococcus aureus
[2] = test system: replicating M. tuberculosis; test: MIC under replication (R) conditions; format: cell-based, Mycobacterium tuberculosis; settings: for MIC: Mycobacterium tuberculosis
HepG2 cells = format: cell-based; settings: human, 2 day
Method: Three lead compounds were identified in the first round of high throughput screening (700 compounds), which had minimal inhibitory concentrations (MIC) of 0.4-0.8 μg/mL after a six day exposure to drug (NRd6) in the model of non-replication at pH 5.0, and LD50's of 100 to >100 μg/mL against HepG2 cells (a 2 day exposure).
Furthermore, LD50 values were determined using a human hepatoma cell line (HepG2) using intracellular ATP levels as a measurement that correlated with cellular viability.

Streptococcus = test: Antibiotic spectrum: Streptococcus; format: cell-based; settings: Gram positive, replicating conditions, n=1 experiment; for MIC: Streptococcus, read-out: MIC against Streptococcus
[3] = test system: non-replicating wild-type Mycobacterium tuberculosis (Mtb); test: CFU-based cidal assay, non-replicating wild-type Mtb (FIG. 1); format: cell-based
[4] = test system: murine bone marrow-derived macrophages; test: Toxicity to macrophages by visual inspection; settings: 100 μg/mL; visual inspection at 400× magnification
Candida albicans = test: Activity against fungus Candida albicans; format: cell-based; settings: pH 5.0
Method: In addition, activity was tested against the fungus Candida albicans at pH 5.0.

[5] = test system: wild-type Mtb infecting murine bone marrow-derived macrophages; test: Killing of Mtb infecting bone marrow-derived macrophages (FIG. 2); format: cell-based, Mycobacterium tuberculosis; settings: 100 μg/mL
[6] = 72 h, pH 5, Table 2, library samples (purity approximately 75%), read-out: MIC NR pH 5.0, day 3 exposure
[7] = 144 h, pH 5, Table 2, library samples (purity approximately 75%), read-out: MIC NR pH 5.0, day 6 exposure
[8] = pH 5, read-out: MIC NR pH 5, D3 exposure
[9] = pH 5, read-out: MIC NR pH 5, D6 exposure
[10] = read-out: MIC NR at 0.01 Inoc. and 3 Day Exposure to Drug, 7 Day Outgrowth, Table 8, ranges from multiple assays
[11] = read-out: MIC NR at 0.01 Inoc. and 3 Day Exposure to Drug, 11 Day Outgrowth, Table 8, ranges from multiple assays

Structure (SMILES) | MIC against Pseudomonas aeruginosa (Pseudomonas aeruginosa) [mg/L] | MIC (Pseudomonas aeruginosa) [mg/L] | MIC [1, 6] [mg/L] | MIC [1, 7] [mg/L] | MIC [1, 8] [mg/L] | MIC [1, 9] [mg/L] | MIC [1, 10] [mg/L] | MIC [1, 11] [mg/L] | MIC (Escherichia coli) [mg/L] | MIC against Escherichia coli (Escherichia coli) [mg/L] | MIC against Staphylococcus aureus (Staphylococcus aureus) [mg/L] | MIC (Staphylococcus aureus) [mg/L] | HepG2 Toxicity LD50 (HepG2 cells) | HepG2 toxicity (HepG2 cells) [µg/mL] | MIC against Streptococcus (Streptococcus) [mg/L] | MIC (Streptococcus) [mg/L] | other results
CCCN[C@@H]1C(=O)N2C(C(=O)OCCC)=C(C)CS[C@H]12 [Compound 11c, (6R,7R)-propyl 3-methyl-8-oxo-7-(propylamino)-5-thia-1-azabicyclo[4.2.0]oct-2-ene-2-carboxylate] | >100 | > 100 | 6.3 (≈ 21.1 µM) | 1.6 (≈ 5.36 µM) | 1.6 (≈ 5.36 µM) | 0.4 (≈ 1.34 µM) | 0.39 to 0.78 (≈ 1.31 to 2.61 µM) | 0.78 (≈ 2.61 µM) | > 100 | >100 | >100 | > 100 | 100−>100 | >100 | >100 | > 100 | selectivity index (LD50/MIC-NRd6) [1]: 129; MIC ([2]; pH 6.6, read-out: MIC pH 6.6, R cells): > 100 mg/L
CCCOC(=O)C1=C(C)CS[C@@H]2[C@H](NC(=O)OCc3ccccc3)C(=O)N12 [Compound 13] | >100 | > 100 | 6.3 (≈ 16.1 µM) | < 0.39 | 1.6 (≈ 4.1 µM) | 0.8 (≈ 2.05 µM) | 0.2 to 0.39 (≈ 0.512 to 0.999 µM) | 0.39 to 0.78 (≈ 0.999 to 2 µM) | > 100 | >100 | >100 | > 100 | 100 µg/mL | 100 | >100 | > 100 | surviving Mtb (limit of detection) ([3]; 10 μg/mL, 7 days at 1% O2, OD580 0.01, 7H11-OADC agar): < 100 colony forming units; effect of clavulanate on killing of non-replicating Mtb ([3]; NR conditions, 7 days, presence or absence of clavulanate): clavulanate-independent; also recorded: not detected; cidality against non-replicating wild-type Mtb ([3]; starting inoculum 0.01): cidal activity; also recorded: significant cidality; MIC ([2]; pH 6.6, Table 3, resynthesized to >95% purity, read-out: MIC pH 6.6, R cells): > 100 mg/L; MIC against replicating Mtb in presence or absence of clavulanic acid ([2]; with vs without clavulanic acid): identical; toxicity to the macrophages [4]: no toxicity; MIC (Candida albicans): > 100 mg/L; killing of wild-type Mtb infecting macrophages [5]: kills; increased killing in IFNγ-activated BMDMs versus unactivated ([5]; +50 ng/mL IFNγ vs −IFNγ): approximately 0.5 log10; killing of intracellular Mtb, log10 reduction of CFU ([5]; activated macrophages, MOI 5, two independent experiments): ~1.5 log10
